These results are taken from patent publication US20250099448A1, “HETEROCYCLIC COMPOUNDS” (Hoffmann-La Roche Inc., priority 2022, published 2025).

The assay addresses T1, MAGL protein (Homo sapiens, UniProt Q99685).
T1 sequence (Q99685 1-303): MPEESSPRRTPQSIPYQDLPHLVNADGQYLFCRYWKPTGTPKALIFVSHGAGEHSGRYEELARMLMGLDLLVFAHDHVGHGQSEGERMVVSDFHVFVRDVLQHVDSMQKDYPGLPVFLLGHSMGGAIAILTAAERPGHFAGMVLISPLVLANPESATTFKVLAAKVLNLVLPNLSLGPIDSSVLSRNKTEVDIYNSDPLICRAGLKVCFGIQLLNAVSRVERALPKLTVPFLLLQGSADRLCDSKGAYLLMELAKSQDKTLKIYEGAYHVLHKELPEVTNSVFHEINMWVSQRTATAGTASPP
The experiment in a line: 2-AG assay: MAGL inhibitory activity by hydrolysis of 2-arachidonoylglycerol to arachidonic acid, followed by mass spectrometry. Type of assay: biochemical. The conditions noted are these: 8 μM 2-arachidonoylglycerol, 15 min preincubation, 30 min reaction at RT, RapidFire MS readout. An outline of the steps:
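MAGL was preincubated 15 min at RT with compound (12.5 to […], 3-fold steps) in 50 mM TRIS, 1 mM EDTA, 0.01% Tween-20, 2.5% DMSO. The reaction ran 30 min at RT with 8 μM 2-AG. Arachidonic acid was quantified by RapidFire SPE-MS/MS against a d8-arachidonic acid internal standard.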
As a reminder, the IC50 is the concentration at which inhibition is half-maximal. Low values mean greater potency, high ones weaker potency. Consider `CC(C)(Oc1ccc(C2CN(C(=O)N3CC4(CC(c5nnc(C6(O)CC6)[nH]5)C4)C3)C2)cc1)C(F)(F)F` [compound 368], for which the IC50 was determined as 0.17 nM.

Take `O=C(N1CC(c2ccc(S(=O)(=O)c3ccccc3)cc2)C1)N1CC2(CC(c3nnc(C4CC4)[nH]3)C2)C1` [compound 371]: the IC50 is 0.4 nM. The molecule `COC(=O)C1(c2ccc(C3CN(C(=O)N4CC5(CC(c6nnc(C7CC7)[nH]6)C5)C4)C3)cc2)CC1` [compound 372] displayed an IC50 of 0.57 nM.

Molecule `O=C(N1CC(c2ccc(Oc3ccccc3Cl)nc2)C1)N1CC2(CC(c3nnc(C4(O)CC4)[nH]3)C2)C1` [compound 374] returned an IC50 of 1.61 nM. In the case of `O=C(N1CC(c2ccc(OCC3(C(F)(F)F)CC3)cc2)C1)N1CC2(CC(c3nnc(C4(O)CC4)[nH]3)C2)C1` [compound 375] it was 1.89 nM; in that of `N#CC1(c2ccc(C3CN(C(=O)N4CC5(CC(c6nnc(C7CC7)[nH]6)C5)C4)C3)cc2)CC1` [compound 376], 2.22 nM. The result for `O=C(N1CC(c2ccc(-c3nnc(C4(C(F)(F)F)CC4)[nH]3)cc2)C1)N1CC2(CC(c3nc(C4CC4)n[nH]3)C2)C1` [compound 377] reads 4.29 nM. In the case of `O=C(N1CC(c2ccc(Oc3ccccc3Cl)nn2)C1)N1CC2(CC(c3nnc(C4CC4)[nH]3)C2)C1` [compound 378] it was 16.6 nM; in that of `O=C(N1CC(c2ccc(C3(c4nnn[nH]4)CC3)cc2)C1)N1CC2(CC(c3nnc(C4CC4)[nH]3)C2)C1` [compound 379], 61 nM. Turning to `NS(=O)(=O)c1ccc(C2CN(C(=O)N3CC4(CC(c5nnc(C6CC6)[nH]5)C4)C3)C2)cc1` [compound 380], the IC50 was 64.2 nM. Regarding `CP(C)(=O)Cc1ccc(C2CN(C(=O)N3CC4(CC(c5nnc(C6CC6)[nH]5)C4)C3)C2)cc1` [compound 381], 0.69 nM corresponded to half-maximal inhibition (IC50). Consider `CC(C)c1ccc(N(C)c2ccc(C3CN(C(=O)N4CC5(CC(c6nnc(C7CC7)[nH]6)C5)C4)C3)cn2)cc1` [compound 382], for which the midpoint of inhibition, the IC50, lay at 21.4 nM. In the case of `CN(c1ccccc1)c1ccc(C2CN(C(=O)N3CC4(CC(c5nnc(C6CC6)[nH]5)C4)C3)C2)cn1` [compound 383], the IC50 worked out at 2.09 nM. In the case of `NC(=O)C1CCCCN1c1ccc(C2CN(C(=O)N3CC4(CC(c5nnc(C6CC6)[nH]5)C4)C3)C2)cc1` (stereo not drawn) [compound 384] it was 2.64 nM; in that of `NC(=O)C1CC(F)(F)CCN1c1ccc(C2CN(C(=O)N3CC4(CC(c5nnc(C6CC6)[nH]5)C4)C3)C2)cc1` (stereo not drawn) [compound 385], 3.76 nM; in that of `NC(=O)C1CCCN1c1ccc(C2CN(C(=O)N3CC4(CC(c5nnc(C6CC6)[nH]5)C4)C3)C2)cc1` (stereo not drawn) [compound 386], 246 nM.

In turn, `CC(C)(C)c1ccc(C2CN(C(=O)N3CC4(CC(c5nc(C6CC6)n[nH]5)C4)C3)C2)cn1` [compound 399] yielded an IC50 of 2.63 nM. As for `O=C(N1CC2(CC(Cc3cc(C(F)(F)F)ncn3)C2)C1)N1CC2(CC(c3nc(C4CC4)n[nH]3)C2)C1` [compound 400], the IC50 turned out to be 1.17 nM. In the case of `O=C(N1CC2(CC(Cc3cnn(C(F)(F)F)c3)C2)C1)N1CC2(CC(c3nc(C4CC4)n[nH]3)C2)C1` [compound 401], 0.4 nM corresponded to half-maximal inhibition (IC50). `O=C(N1CC2(CC(Cc3ccnc(C(F)(F)F)n3)C2)C1)N1CC2(CC(c3nc(C4CC4)n[nH]3)C2)C1` [compound 402] showed an IC50 of 0.95 nM. The result for `O=C(N1CC2(CC(Cc3nccc(C(F)(F)F)n3)C2)C1)N1CC2(CC(c3nc(C4CC4)n[nH]3)C2)C1` [compound 403] reads 0.75 nM. The molecule `O=C(N1CC2(CC(Cc3cc(C(F)(F)F)n[nH]3)C2)C1)N1CC2(CC(c3nc(C4CC4)n[nH]3)C2)C1` [compound 404] had an IC50 of 0.29 nM. For the molecule `O=C(N1CC2(CC(Cc3cn(C4CC4)nc3C(F)(F)F)C2)C1)N1CC2(CC(c3nc(C4CC4)n[nH]3)C2)C1` [compound 405], the concentration for half-maximal inhibition (IC50) stood at 0.57 nM. The result for `O=C(N1CC2(CC(Cn3cc(C(F)(F)F)ccc3=O)C2)C1)N1CC2(CC(c3nc(C4CC4)n[nH]3)C2)C1` [compound 406] reads 1.75 nM.
